Test results published in US7410976B2, “Spirochromanone derivatives” (Merck & Co., Inc., priority 2005, dated 2008).
Structures can show the parent of a compound that is named as a salt.

Columns and labels:
human ACC1 = human ACC1 (Homo sapiens, UniProt Q13085); test: Acetyl CoA carboxylase (ACC) activity inhibition test, human ACC1; type: biochemical; details: 1 μmol/liter compound; control: DMSO well without test compound; read-out: Inhibition (%) by 1 μmol/liter Chemical, human ACC1
Experimental: (§1) A. Pharmacological Test Example (Acetyl CoA Carboxylase (ACC) Activity Inhibition Test)
(§2) Concretely, 0.8 μl of the diluted test compound is added to each well of 96-well assay plate (Perkin Elmer Opti Plate), then 40 μl of a substrate solution (50 mM Hepes sodium (pH 7.5), 2 mM DTT, 10 mM ATP, 500 μM acetyl CoA, 0.17 mM NaH[^14C]O3 (58 mCi/mmol, by Amersham), 8 mM NaHCO3) is added to each well, and 40 μL of an enzyme solution (1 to 2 nM human ACC1 or human ACC2, 50 mM Hepes sodium (pH 7.5), 2 mM DTT, 40 mM MgCl2, 40 mM tripotassium citrate 1 mg/ml fetal bovine serum albumin) is added thereto. Then, the upper side of the plate is sealed up, and the plate is incubated with gently stirring at 37° C. for 40 minutes. Next, 20 μl of 1N HCl is added to each well to stop the enzyme reaction, and the assay plate is stirred overnight to remove the unreacted NaH[^14C]O3. Next, 100 μl of a scintillator (Perkin Elmer's Microscinti 40) is added to each well and the plate is stirred, then the radioactivity of the fixed [^14C] is counted using a microplate scintillation counter (Perlin Elmer's Topcount), the radioactivity of which represents the enzyme activity in each well. The human ACC1 and human ACC2 enzyme-inhibition activities of the test compounds are calculated, based on the radioactivity of the well added by DMSO without test compound as a control.

human ACC2 = human ACC2 (Homo sapiens, UniProt O00763); test: Acetyl CoA carboxylase (ACC) activity inhibition test, human ACC2; type: biochemical; details: 1 μmol/liter compound; control: DMSO well without test compound; read-out: Inhibition (%) by 1 μmol/liter Chemical, human ACC2
Experimental: as §1, §2

Sequence of human ACC2 (O00763 whole entry): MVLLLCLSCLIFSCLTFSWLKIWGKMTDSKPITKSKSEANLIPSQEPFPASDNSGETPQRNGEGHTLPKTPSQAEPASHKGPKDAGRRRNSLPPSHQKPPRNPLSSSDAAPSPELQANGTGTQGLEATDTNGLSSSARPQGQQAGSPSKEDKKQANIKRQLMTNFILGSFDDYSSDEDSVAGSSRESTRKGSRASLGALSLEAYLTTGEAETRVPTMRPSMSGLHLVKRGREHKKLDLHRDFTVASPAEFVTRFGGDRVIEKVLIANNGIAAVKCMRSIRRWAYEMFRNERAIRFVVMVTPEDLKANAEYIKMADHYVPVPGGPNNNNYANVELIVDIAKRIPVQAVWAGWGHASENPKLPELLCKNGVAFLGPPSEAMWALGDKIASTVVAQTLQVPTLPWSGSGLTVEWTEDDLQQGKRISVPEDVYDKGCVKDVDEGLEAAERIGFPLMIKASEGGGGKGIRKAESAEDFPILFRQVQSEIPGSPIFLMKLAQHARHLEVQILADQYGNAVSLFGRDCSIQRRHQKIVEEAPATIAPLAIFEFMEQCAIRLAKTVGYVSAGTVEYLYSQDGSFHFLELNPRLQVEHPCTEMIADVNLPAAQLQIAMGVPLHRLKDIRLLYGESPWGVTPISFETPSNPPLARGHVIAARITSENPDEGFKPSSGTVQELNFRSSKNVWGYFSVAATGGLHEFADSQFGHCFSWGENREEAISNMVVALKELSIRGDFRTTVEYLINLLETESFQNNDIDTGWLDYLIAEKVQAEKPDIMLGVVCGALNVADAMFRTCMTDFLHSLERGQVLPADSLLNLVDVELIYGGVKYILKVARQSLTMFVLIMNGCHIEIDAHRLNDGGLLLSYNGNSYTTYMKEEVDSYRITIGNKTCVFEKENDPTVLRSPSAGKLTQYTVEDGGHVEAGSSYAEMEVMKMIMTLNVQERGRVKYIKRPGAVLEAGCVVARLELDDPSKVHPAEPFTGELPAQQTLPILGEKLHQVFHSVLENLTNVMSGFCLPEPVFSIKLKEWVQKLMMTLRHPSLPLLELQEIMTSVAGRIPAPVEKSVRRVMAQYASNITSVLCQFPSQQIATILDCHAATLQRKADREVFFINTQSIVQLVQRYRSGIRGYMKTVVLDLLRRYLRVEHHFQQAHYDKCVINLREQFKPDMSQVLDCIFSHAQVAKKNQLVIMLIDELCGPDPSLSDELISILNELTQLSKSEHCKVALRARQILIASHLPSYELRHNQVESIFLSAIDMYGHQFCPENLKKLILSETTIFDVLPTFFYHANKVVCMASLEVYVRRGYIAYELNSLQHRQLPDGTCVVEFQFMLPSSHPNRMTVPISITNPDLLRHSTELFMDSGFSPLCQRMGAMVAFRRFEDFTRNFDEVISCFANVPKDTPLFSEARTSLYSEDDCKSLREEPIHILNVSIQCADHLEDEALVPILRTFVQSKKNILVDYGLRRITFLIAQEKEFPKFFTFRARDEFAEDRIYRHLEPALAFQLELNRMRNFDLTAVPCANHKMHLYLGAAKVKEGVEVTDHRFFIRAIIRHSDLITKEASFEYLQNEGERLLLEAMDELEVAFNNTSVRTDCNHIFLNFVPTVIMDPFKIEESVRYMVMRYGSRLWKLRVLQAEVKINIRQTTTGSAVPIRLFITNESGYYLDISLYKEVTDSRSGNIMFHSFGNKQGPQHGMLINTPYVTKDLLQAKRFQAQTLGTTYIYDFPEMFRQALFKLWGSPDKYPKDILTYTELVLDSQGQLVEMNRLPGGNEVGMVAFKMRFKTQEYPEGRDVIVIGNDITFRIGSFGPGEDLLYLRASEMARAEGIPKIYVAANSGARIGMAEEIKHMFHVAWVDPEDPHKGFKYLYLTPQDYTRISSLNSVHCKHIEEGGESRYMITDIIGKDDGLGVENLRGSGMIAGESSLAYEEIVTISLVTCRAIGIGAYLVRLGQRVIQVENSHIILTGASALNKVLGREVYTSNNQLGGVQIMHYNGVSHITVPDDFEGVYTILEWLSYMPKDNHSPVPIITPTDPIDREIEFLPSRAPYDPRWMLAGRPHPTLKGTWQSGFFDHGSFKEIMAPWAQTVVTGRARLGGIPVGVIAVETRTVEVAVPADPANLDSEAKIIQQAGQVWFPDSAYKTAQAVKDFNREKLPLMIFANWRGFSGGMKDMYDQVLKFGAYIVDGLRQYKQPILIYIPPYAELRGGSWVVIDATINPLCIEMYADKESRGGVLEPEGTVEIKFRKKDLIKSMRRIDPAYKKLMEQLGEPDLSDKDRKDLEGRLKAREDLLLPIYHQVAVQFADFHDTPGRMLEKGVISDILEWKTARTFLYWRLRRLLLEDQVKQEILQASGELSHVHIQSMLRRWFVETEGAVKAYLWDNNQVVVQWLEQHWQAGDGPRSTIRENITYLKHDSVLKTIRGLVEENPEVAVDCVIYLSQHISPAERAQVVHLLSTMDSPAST

## COc1cc(C(=O)N2CCC3(CC2)CC(=O)c2cc(NC(C)=O)ccc2O3)nc2ccccc12 [Example 2, N-{1′-[(4-methoxyquinolin-2-yl)carbonyl]-4-oxospiro[chroman-2,4′-piperidin]-6-yl}acetamide hydrochloride]
Human ACC1
  inhibition at 1 µM: 82%
Human ACC2
  inhibition at 1 µM: 85%

## COc1cc(C(=O)N2CCC3(CC2)CC(=O)c2cc(NC(C)=O)ccc2O3)nc2c(OC)cccc12 [Example 3, N-{1′-[(4,8-dimethoxyquinolin-2-yl)carbonyl]-4-oxospiro[chroman-2,4′-piperidin]-6-yl}acetamide]
Human ACC1
  inhibition at 1 µM: 100%
Human ACC2
  inhibition at 1 µM: 98%

## COc1cc(C(=O)N2CCC3(CC2)CC(=O)c2ccccc2O3)nc2c(OC)cccc12 [Example 4, 1′-[(4,8-dimethoxyquinolin-2-yl)carbonyl]spiro[chroman-2,4′-piperidin]-4-one]
Human ACC1
  inhibition at 1 µM: 93%
Human ACC2
  inhibition at 1 µM: 96%

## COc1cc(C(=O)N2CCC3(CC2)CC(=O)c2cc(N)ccc2O3)nc2c(OC)cccc12 [Example 5, 6-amino-1′-[(4,8-dimethoxyquinolin-2-yl)carbonyl]spiro[chroman-2,4′-piperidin]-4-one]
Human ACC1
  inhibition at 1 µM: 97%
Human ACC2
  inhibition at 1 µM: 97%

## COc1cc(C(=O)N2CCC3(CC2)CC(=O)c2cc(Nc4ccnn4C)ccc2O3)nc2c(OC)cccc12 [Example 10, 1′-[(4,8-dimethoxyquinolin-2-yl)carbonyl]-6-[(1-methyl-1H-pyrazol-5-yl)amino]spiro[chroman-2,4′-piperidin]-4-one]
Human ACC1
  inhibition at 1 µM: 100%
Human ACC2
  inhibition at 1 µM: 99%

## COc1cc(C(=O)N2CCC3(CC2)CC(=O)c2cc(-c4nnn[nH]4)ccc2O3)nc2c(OC)cccc12 [Example 18, 1′-[(4,8-dimethoxyquinolin-2-yl)carbonyl]-6-(1H-tetrazol-5-yl)spiro[chroman-2,4′-piperidin]-4-one sodium salt]
Human ACC1
  inhibition at 1 µM: 97%
Human ACC2
  inhibition at 1 µM: 99%

## CCOc1cc(C(=O)N2CCC3(CC2)CC(=O)c2cc(-c4nnn[nH]4)ccc2O3)nc2c(C3CC3)nccc12 [Example 21, 1′-[(8-cyclopropyl-4-ethoxy-1.7-naphthyridin-2-yl)carbonyl]-6-(1H-tetrazol-5-yl)spiro[chroman-2,4′-piperidin]-4-one]
Human ACC1
  inhibition at 1 µM: 99%
Human ACC2
  inhibition at 1 µM: 97%

## COc1cc(C(=O)N2CCC3(CC2)CC(=O)c2cc(-c4nc[nH]n4)ccc2O3)nc2c(OC)cccc12 [Example 27, 1′-[(4,8-dimethoxyquinolin-2-yl)carbonyl]-6-(1H-1,2,4-triazol-3-yl)-spiro[chroman-2,4′-piperidin]-4-one]
Human ACC1
  inhibition at 1 µM: 101%
Human ACC2
  inhibition at 1 µM: 100%
